A word on the IC50: it is the point on the concentration scale where inhibition reaches its midpoint. Low values mean higher potency, high ones lower potency.

For this assay, the target named is Histone-lysine N-methyltransferase EZH2 [Y641N] (UniProt Q15910, Y641N). Put plainly: Test on EZH2 (Y641F) and EZH2 (Y641N) Inhibitory Activities.
Histone-lysine N-methyltransferase EZH2 [Y641N], sequence (Q15910 whole entry Y641N): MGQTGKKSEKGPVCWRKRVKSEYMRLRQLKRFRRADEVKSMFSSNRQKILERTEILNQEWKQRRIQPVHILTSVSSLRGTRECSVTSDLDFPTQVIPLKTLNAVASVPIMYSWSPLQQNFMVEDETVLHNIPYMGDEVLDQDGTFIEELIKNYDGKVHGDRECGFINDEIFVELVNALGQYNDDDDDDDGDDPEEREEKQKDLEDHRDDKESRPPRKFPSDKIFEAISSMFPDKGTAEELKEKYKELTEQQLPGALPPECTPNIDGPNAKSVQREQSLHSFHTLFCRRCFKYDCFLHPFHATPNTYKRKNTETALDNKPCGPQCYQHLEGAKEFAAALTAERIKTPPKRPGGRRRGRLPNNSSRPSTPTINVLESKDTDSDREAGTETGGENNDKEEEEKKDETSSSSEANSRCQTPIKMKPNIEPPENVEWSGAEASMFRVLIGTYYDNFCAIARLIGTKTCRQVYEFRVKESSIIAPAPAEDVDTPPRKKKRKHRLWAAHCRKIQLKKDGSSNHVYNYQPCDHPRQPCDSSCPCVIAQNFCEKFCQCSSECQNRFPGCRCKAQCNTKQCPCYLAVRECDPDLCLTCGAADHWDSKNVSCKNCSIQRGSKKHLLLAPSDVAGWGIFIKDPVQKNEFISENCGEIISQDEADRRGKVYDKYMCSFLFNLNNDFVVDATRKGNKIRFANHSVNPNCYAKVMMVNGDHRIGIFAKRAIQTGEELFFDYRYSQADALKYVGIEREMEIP

Procedure: ProceduresCompounds at different concentrations were dissolved in 100% DMSO and transferred to test plates, and the final concentration of DMSO was 1%. Enzyme solution and substrate SAM solution were prepared with 1-fold reaction buffer (optimized Tris buffer). 5 uL of enzyme solution was added to the test plate and wells only added with 5 uL of reaction buffer were used as negative control wells. […] 5 uL of receptor solution was added and the plate was incubated away from light at room temperature for 60 min. 10 uL of donor solution was added and the plate was incubated away from light at room temperature for 30 min. The endpoint values were read on the Envision and the IC50 was calculated.Data CalculationData were fitted by GraphPad Prism 5 software and inhibition rate was calculated according to equation (1)Inh %=(Max−Signal)/(Max−Min)×100 (1)IC50 was calculated using equation (2)Y=Bottom+(Top−Bottom)/(1+10^((Log IC 50 −X)×Hill Slope))Y: inhibition rate; X: concentration of the compound

Consider `CCN(c1cc(O[C@H]2C[C@H](N3CCCCC3)C2)cc(C(=O)NCc2c(CO)cc(C)[nH]c2=O)c1C)C1CCC(F)(F)CC1` [US12390472, Example 95], for which the IC50 stood at 3.1 nM. This lies in the single-digit nanomolar range.

The values are drawn from BindingDB's records for patent US12390472 (Evopoint Biosciences, 2025).
